Assay results taken from patent US20260364213A1, “RADIOLABELED COMPOUNDS OF TRIMETHOPRIM AND USES THEREOF” (THE TRUSTEES OF THE UNIVERSITY OF PENNSYLVANIA, priority 2023, published 2026).

Tested on: primary human hepatocytes
Experiment: Hepatocyte spheroid assay (liver metabolite study)
Format: in vitro ADME
Experimental: Cryopreserved primary human hepatocytes were acquired from ThermoFisher. To each well of a 96 well ultra-low attachment U-bottom plate, 2,000 cells were plated in 200 μL William's E Medium (no phenol red, 20% FBS, 1% penicillin-streptomycin, 1% insulin-transferrin-selenium solution, […], 1% L-glutamine). The plate was centrifuged at 300 rpm for 2 minutes and then incubated without disturbance. After 5 days, 100 μL of spent media was removed and replaced with fresh media. […] The supernatant was then removed and analyzed on an Agilent 1260 Infinity II LC system equipped with an Eckert & Ziegler FlowCountPRO detector.
Specifically, 2,000 cells were plated in 200 μL William's E Medium (no phenol red, 20% FBS, 1% penicillin-streptomycin, 1% insulin-transferrin-selenium solution, […], 1% L-glutamine). […] The supernatant was then removed and analyzed on an Agilent 1260 Infinity II LC system equipped with an Eckert & Ziegler FlowCountPRO detector.
Specifically, cryopreserved hepatocytes were thawed and diluted 1:10 in a 15 mL conical tube with warm culture media (William's E Medium, no phenol red, 20% FBS, 1% penicillin-streptomycin, 1% insulin-transferrin-selenium solution, […], 1% L-glutamine). […] Cells were counted and diluted to a concentration of 10,000 live cells/mL. […] The supernatant was transferred into an autosampler vial and analyzed by HPLC.

For `COc1cc(Cc2cnc(N)nc2N)cc(I)c1OC` [[^131I]mI-TMP, 5-(3-iodo-4,5-dimethoxybenzyl)pyrimidine-2,4-diamine], the “de-iodination in hepatocyte culture” value (after 24 hours) was “minor de-iodination” and the “de-iodination with CYP450 inhibitor” value (with 1-aminobenzotriazole (100 μM)) was “could be inhibited”.
